{"source": "paper PMC4920026", "about": "(Scientific Reports, 2016)", "target": "huPrP(23–230) (Homo sapiens, UniProt P04156)", "format": "binding", "details": "for k2 (microscopic association constant of xenon to the open state): k1 = 0, pH 4.5", "note": "Like-named read-outs stand apart in the source and are kept apart here.", "data": [{"smiles": "[Xe]", "note": "[xenon]", "values": [{"measurement": "ΔG24 (free energy of xenon binding to the open state)", "setting": "binding site A1, 293 K", "value": "-19.7 ± 0.3", "unit": "kJ/M"}, {"measurement": "Kd", "setting": "binding site A1, Kapp = 1/k2 + k3/k2, 293 K, read-out: Kapp Xe (apparent xenon dissociation constant)", "value": 12.5, "unit": "mM"}, {"measurement": "k2 (microscopic association constant of xenon to the open state)", "setting": "binding site A1, 293 K", "value": "3.2 ± 0.4", "unit": "mM⁻¹"}, {"measurement": "ΔG24 (free energy of xenon binding to the open state)", "setting": "binding site A2, 293 K", "value": "-14.91 ± 0.03", "unit": "kJ/M"}, {"measurement": "Kd", "setting": "binding site A2, Kapp = 1/k2 + k3/k2, 293 K, read-out: Kapp Xe (apparent xenon dissociation constant)", "value": 14.6, "unit": "mM"}, {"measurement": "k2 (microscopic association constant of xenon to the open state)", "setting": "binding site A2, 293 K", "value": "0.46 ± 0.01", "unit": "mM⁻¹"}, {"measurement": "ΔG24 (free energy of xenon binding to the open state)", "setting": "binding site B, 293 K", "value": "-20.5 ± 0.2", "unit": "kJ/M"}, {"measurement": "Kd", "setting": "binding site B, Kapp = 1/k2 + k3/k2, 293 K, read-out: Kapp Xe (apparent xenon dissociation constant)", "value": 9.1, "unit": "mM"}, {"measurement": "k2 (microscopic association constant of xenon to the open state)", "setting": "binding site B, 293 K, k3 set to 39", "value": "4.5 ± 0.4", "unit": "mM⁻¹"}, {"measurement": "ΔG24 (free energy of xenon binding to the open state)", "setting": "binding site C, 293 K", "value": "-11.5 ± 0.7", "unit": "kJ/M"}, {"measurement": "Kd", "setting": "binding site C, Kapp = 1/k2 + k3/k2, 293 K, read-out: Kapp Xe (apparent xenon dissociation constant)", "value": 11.4, "unit": "mM"}, {"measurement": "k2 (microscopic association constant of xenon to the open state)", "setting": "binding site C, 293 K", "value": "0.11 ± 0.03", "unit": "mM⁻¹"}, {"measurement": "ΔG24 (free energy of xenon binding to the open state)", "setting": "binding site D, 293 K", "value": "-14.24 ± 0.02", "unit": "kJ/M"}, {"measurement": "Kd", "setting": "binding site D, Kapp = 1/k2 + k3/k2, 293 K, read-out: Kapp Xe (apparent xenon dissociation constant)", "value": 11.8, "unit": "mM"}, {"measurement": "k2 (microscopic association constant of xenon to the open state)", "setting": "binding site D, 293 K", "value": "0.34 ± 0.02", "unit": "mM⁻¹"}, {"measurement": "apparent xenon affinities k2/(1 + k3)", "setting": "order of magnitude, over all cavities", "value": "~0.1", "unit": "mM⁻¹"}, {"measurement": "Kd", "setting": "order of magnitude, over all cavities, read-out: apparent dissociation constants", "value": "~10", "unit": "mM"}]}]}
